These results are taken from PubChem BioAssay (NCI).

The structures appear in SMILES notation.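 Protocol summary: plate cells (96-well), add compound at 5 concentrations, incubate 48 h, interpolate endpoints linearly. GI50 is the concentration that inhibits growth by half. At the TGI there is no net growth.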

Test systems include DLD-1 colon; DMS 114 small cell lung; DMS 273 small cell lung; HOP-18 NSCLC; KM20L2 colon; SNB-78 CNS; XF 498 CNS; MDA-N; RXF-631 renal.
Holding throughout (assay): DTP human tumour cell line panel, 48 h

For the molecule `C=C/C=C(\NC(=O)C(Cl)(Cl)Cl)[Si](C)(C)C`, the TGI in the assay with DLD-1 colon, in the assay on DMS 114 small cell lung, with DMS 273 small cell lung, with HOP-18 NSCLC, in the assay with KM20L2 colon and with SNB-78 CNS was over 100 µM throughout. Also, the total growth inhibition concentration (TGI) (commonly the concentration at which net growth stops) with XF 498 CNS was over 100 µM.

The molecule `C/C(=N\NC(=O)c1ccncc1)c1ccc2ccccc2c1O` gave a TGI in the assay with MDA-N of over 100 µM.

`NC(N)=NS(=O)(=O)c1ccc(NCc2c3ccccc3nc3ccccc23)cc1`: the concentration for total growth inhibition (TGI) in the assay on DLD-1 colon is over 77 µM; in the assay on DMS 114 small cell lung it was 16 µM; with DMS 273 small cell lung, over 61.6 µM; with HOP-18 NSCLC, over 86.8 µM; with KM20L2 colon it was over 100 µM; with MDA-N, over 100 µM. Moreover, the TGI in the assay on RXF-631 renal is over 70.1 µM; with SNB-78 CNS, over 66.9 µM.

With `COc1ccc2oc3c4c2c1CCC4CCC3=O` (centres undefined), the concentration for total growth inhibition (TGI) with DMS 114 small cell lung, with DMS 273 small cell lung, with RXF-631 renal, in the assay with SNB-78 CNS and with XF 498 CNS was over 100 µM in each case.

For the molecule `CCNCC(=O)O[C@]1(CC)C(=O)OCc2c1cc1n(c2=O)Cc2cc3ccccc3nc2-1`, the TGI in the assay on DLD-1 colon is over 100 µM; in the assay with DMS 114 small cell lung, 2.53 µM; in the assay with DMS 273 small cell lung it was 0.328 µM; in the assay on HOP-18 NSCLC it was 20.5 µM; in the assay with KM20L2 colon it was over 100 µM; in the assay on MDA-N it was 6.95 µM. The results for the total growth inhibition concentration (TGI) in the assay on SNB-78 CNS and in the assay with XF 498 CNS were over 100 µM and 1.56 µM, respectively.

Take `Cc1ccc(-c2nc(SCC(=O)O)n[nH]2)cc1`: the total growth inhibition concentration (TGI) in the assay with DLD-1 colon, in the assay with DMS 114 small cell lung, in the assay with DMS 273 small cell lung, in the assay with HOP-18 NSCLC, in the assay on KM20L2 colon and in the assay on SNB-78 CNS was over 100 µM throughout. The molecule further came in with a TGI in the assay with XF 498 CNS of over 100 µM.

For the molecule `CCCCCC(O)C1C(=O)OC(C)C(O)/C=C/C=C/C=C/C=C\C=C(\C)C(O)CC(O)CC(O)CC(O)CC(O)CC(O)CC1O` (centres undefined), in the assay with MDA-N, the GI50 (in general, the concentration that inhibits growth by half) is over 100 µM and the TGI was over 100 µM.

In the case of `CC(=O)OC1CC(n2cc(F)c(=O)[nH]c2=O)OC1CO` (centres undefined), the total growth inhibition concentration (TGI) in the assay on DLD-1 colon is over 100 µM; in the assay on DMS 114 small cell lung, over 100 µM; in the assay on DMS 273 small cell lung, over 47 µM; in the assay on HOP-18 NSCLC, over 100 µM; in the assay on KM20L2 colon, over 100 µM; in the assay on MDA-N, over 100 µM. The TGI was over 100 µM in the assay on SNB-78 CNS and 83.8 µM in the assay on XF 498 CNS.

For `CCC[CH2][Sn]([CH2]CCC)([O]C(=O)c1cc(F)cc(F)c1)[O]C(=O)c1cc(F)cc(F)c1`, the GI50 in the assay with DLD-1 colon was 0.727 µM; in the assay on DMS 114 small cell lung it was 0.307 µM; in the assay on DMS 273 small cell lung, 1.25 µM; in the assay on HOP-18 NSCLC, 1.91 µM; in the assay on KM20L2 colon it was 1.61 µM; with SNB-78 CNS, 0.404 µM. Moreover, the GI50 in the assay on XF 498 CNS was 1.87 µM. The TGI came out at 2 µM with DLD-1 colon; 1.22 µM in the assay with DMS 114 small cell lung; 2.5 µM in the assay on DMS 273 small cell lung; 3.33 µM in the assay with HOP-18 NSCLC; 3.44 µM with KM20L2 colon; 1.66 µM in the assay with SNB-78 CNS. In the assay on XF 498 CNS, this molecule came in with a total growth inhibition concentration (TGI) of 3.28 µM.

For `O=P(O)(O)c1ccccc1` (tested in a mixture with another compound), the TGI with MDA-N is over 100 µM.

For the molecule `N#CC(C(=O)/C(=N\Nc1nc(=S)[nH]n1N)C(C#N)c1ccc(Cl)cc1)c1ccc(Cl)cc1` (centres undefined), the TGI in the assay on DLD-1 colon, with DMS 114 small cell lung, in the assay with DMS 273 small cell lung, in the assay with HOP-18 NSCLC, in the assay on KM20L2 colon and in the assay with SNB-78 CNS was over 100 µM each time. Further, the TGI in the assay on XF 498 CNS is over 100 µM.

With `CC(C)C1OC(=O)C=C1Sc1ccccc1` (centres undefined), the concentration for total growth inhibition (TGI) in the assay on MDA-N is over 100 µM.

As to `CCn1c2c(n(CC)c1=S)-c1c(n(CC)c(=S)n1CC)SSSS2`, the TGI in the assay on DLD-1 colon came out at 5.73 µM; with DMS 114 small cell lung, 38.1 µM; in the assay on DMS 273 small cell lung, 33.1 µM; with HOP-18 NSCLC, 22 µM; in the assay with KM20L2 colon it was 29.5 µM; in the assay on RXF-631 renal it was 24.4 µM. For the same molecule, the TGI with SNB-78 CNS is 28.1 µM; with XF 498 CNS, 4.08 µM.

Consider `O=C1C(Br)=CC2(C=C1Br)CCN=c1c2c(O)c2nc3ccccc3c3ccnc1c23`, for which, in the assay on MDA-N, the GI50 is 0.951 µM and the TGI is 2.22 µM.

Turning to `Cn1c2c(c3ccccc31)C1CCCCC1C1C(=O)NC(=O)C21` (centres undefined), the total growth inhibition concentration (TGI) with DLD-1 colon, with DMS 114 small cell lung, in the assay with HOP-18 NSCLC, in the assay on RXF-631 renal, in the assay with SNB-78 CNS and in the assay with XF 498 CNS was over 100 µM throughout.

Consider `CN(C)c1ccc(/C=C(/NC(=O)c2ccccc2)c2nc3ccc(Cl)cc3[nH]2)cc1`, for which the TGI was over 100 µM with DLD-1 colon; over 100 µM in the assay with DMS 273 small cell lung; 8.45 µM in the assay on HOP-18 NSCLC; 84.8 µM with KM20L2 colon; over 100 µM in the assay with SNB-78 CNS.

For `CN(C)c1ccc(N=Cc2c([O-])ccc3ccccc23)cc1.[C-]#[O+].[C-]#[O+].[Ir]`, the GI50 is 17.4 µM with DLD-1 colon; 10.5 µM in the assay with DMS 114 small cell lung; 13 µM in the assay with HOP-18 NSCLC; 18.7 µM in the assay on KM20L2 colon; 20.5 µM with XF 498 CNS. The concentration for total growth inhibition (TGI) in the assay on DLD-1 colon was found to be 37.6 µM; in the assay with DMS 114 small cell lung, 22.8 µM; in the assay on HOP-18 NSCLC, 27.6 µM; with KM20L2 colon it was 33.4 µM; in the assay on XF 498 CNS, 48.4 µM.

As for `COc1cc2c(cc1OC)-c1cc3cc(OC)c(OC)cc3n1CC2`, the total growth inhibition concentration (TGI) with DLD-1 colon was over 100 µM; in the assay with DMS 114 small cell lung, over 100 µM; in the assay with KM20L2 colon, over 100 µM; in the assay with SNB-78 CNS, over 100 µM; in the assay on XF 498 CNS it was 59.7 µM.

For the molecule `C[C@]12CCC[C@H](Cl)C1(O)C[C@H](C(=O)O)CC2` (some centres undefined), the TGI in the assay on DLD-1 colon, in the assay on DMS 114 small cell lung, with DMS 273 small cell lung, in the assay on HOP-18 NSCLC, in the assay with KM20L2 colon and in the assay on SNB-78 CNS was over 100 µM throughout. In addition, the concentration for total growth inhibition (TGI) in the assay with XF 498 CNS was over 100 µM.

Turning to `COc1ccc(/C=C2\CCCCC2=O)cc1`, the total growth inhibition concentration (TGI) with DLD-1 colon, in the assay with DMS 114 small cell lung, in the assay with DMS 273 small cell lung, in the assay on HOP-18 NSCLC, in the assay with KM20L2 colon and in the assay on SNB-78 CNS was over 100 µM throughout. In the assay on XF 498 CNS, this molecule gave a concentration for total growth inhibition (TGI) of over 100 µM.
